According to publication PMC8252455, “Prediction of a clinically effective dose of THY1773, a novel V 1B receptor antagonist, based on preclinical data” (Biopharmaceutics & Drug Disposition, 2021):

Tests used:
Assay type in all cases: in vitro ADME
[1] = Plasma protein binding by equilibrium dialysis, human plasma; settings: PBPK input, experimental data
Procedure: The plasma protein binding of THY1773 in rats, dogs, and humans was evaluated by an equilibrium dialysis method using a 96‐well equilibrium dialysis plate (HTDialysis) with a 12–14 kDa cut‐off dialysis membrane. THY1773 was dissolved in dimethyl sulfoxide, and spiked with rat, dog, or human plasma at a final concentration of 300 ng/ml. An aliquot of plasma containing THY1773 and sodium phosphate buffer (pH 7.4) was added into the donor side and the receiver side of each designated well, respectively. After incubation for 6 h at a rate of 50 oscillation/min at 37°C in an air incubator, an aliquot of each side of each well was collected and mixed with acetonitrile/methanol (9:1, vol/vol) containing the IS. Each sample was centrifuged at 3974 × g for 10 min at 4°C to remove the precipitated proteins, and the resultant supernatants were subjected to LC‐MS/MS analysis. The protein binding (%) was calculated using the Boudinot formula (Boudinot & Jusko, 1984).

[2] = CLint in human liver microsomes (reaction phenotyping, no inhibitor); settings: HLMs
Procedure: Reaction phenotyping using cDNA expressed recombinant human CYP isoforms, CYP1A2, CYP2B6, CYP2C8, CYP2C9, CYP2C19, CYP2D6, and CYP3A4, was conducted. Each recombinant enzyme (100 pmol/ml) in potassium phosphate buffer (pH 7.4; 100 mmol/L for CYP3A4, 50 mmol/L for the others) was preincubated with [^3H]THY1773 (10 μmol/L) at 37°C for 5 min. The reactions were initiated by the addition of NADPH‐generating system (1 mmol/L NADP^+, 5 mmol/L G‐6‐P, 1 unit/ml G‐6‐PDH, and 5 mmol/L MgCl2) and incubated for 0 or 60 min. The reactions were terminated by the addition of an equal volume of acetonitrile/methanol (9:1, vol/vol), followed by centrifugation at 1650 × g for 10 min at 4°C. An aliquot of the supernatant was subjected to an Agilent 1200 HPLC system (Agilent Technologies, Inc.) equipped with a radiochemical flow detector (Radiomatic 625TR; Perkin Elmer, Inc.), and formation of metabolites was evaluated. […] The CLint was calculated by the method as described previously under metabolic stability in animal liver microsomes, and the fraction metabolized (fm) was calculated by Equation (1): (1) fm=1−(CLint, with inh/CLint) where CLint is intrinsic clearance without specific inhibitor and CLint,with inh is intrinsic clearance in the presence of specific inhibitor.

[3] = Parallel artificial membrane permeability assay (PAMPA)
Procedure: The membrane permeability of THY1773 was measured using a parallel artificial membrane permeability assay (PAMPA) Evolution instrument (Pion Inc.). A “sandwich” plate consisting of a donor bottom plate with stir bars and an acceptor filter plate was used for the experiment. A donor plate was prepared by the addition of THY1773 to diluted PRISMA HT at pH 6.2 (final concentration of 12.5 μmol/L). An acceptor plate was coated with GIT‐0 lipid solution, followed by the addition of acceptor sink buffer (pH 7.4). After incubation for 4 h at room temperature, the concentrations of THY1773 in the reference, donor, and acceptor solutions were measured with a UV plate reader. The apparent permeability (Papp) was calculated using the PAMPA Evolution software (version 3.1; Pion Inc.).

CC(C)NC(=O)Cn1c(-c2cccc(Cl)c2)nn(-c2ccc(CCN3CCOCC3)cc2)c1=O [THY1773]
Fraction unbound in plasma [1]: 0.017
CLint ([2]; 500 nmol/L, no inhibitor): 11.2 ± 0.898 µL/min/mg
CLint (PBPK input, Model 1) ([2]; experimental data): 11.2 (Model 1) μl/min/mg protein
Papp in PAMPA ([3]; donor pH 6.2, 12.5 μmol/L, 4 h, room temperature): 128.9 10^−6 cm/s
Permeability in the gut (assessment from PAMPA) ([3]; pH 6.2): high permeability
